Values after ≈ are worked out from the molar mass of the structure shown. Where a name gives a salt, the structure may show the parent alone. Active and inactive are the calls of the source. The calls are words filed in the database; no cut-off is given here.
Key:
Bacillus spizizenii = assay: Antibacterial activity against Bacillus subtilis ATCC 6633 by double microdilution method; format: functional
Ribosome [1] = assay: Inhibition of ribosome-mediated translation in prokaryotic system
[2] = (§1) Cytotoxicity against HFF; format: cell-based; conditions: human, HFF cells; read-out: LC50 (the source's name)
Ribosome [3] = assay: Induction of ribosome-mediated readthrough activity in rabbit reticulocyte lysate assessed as suppression of G542X mutation after 90 mins by dual luciferase reporter gene assay; conditions: Oryctolagus cuniculus
[4] = Cytotoxicity against HEK293 cells; format: cell-based; conditions: human, read-out: LC50 (the source's name)
[5] = target: T1, 80S Ribosome (Homo sapiens) (UniProt P08865+P42677+P62753+P15880+P23396+P61247+P62701+P22090+P46782+P62081+P62241+P46781+P46783+P62280+P25398+P62277+P62263+P62841+P62244+P62249+P08708+P62269+P39019+P60866+P63220+P62266+P62847+P62851+P62854+P62979+P62857+P62273+P62861+P39023+P36578+P46777+Q02878+P18124+P62424+P62917+P32969+P27635+P62906+P62913+P30050+P26373+P40429+P50914+P61313+P18621+Q07020+Q02543+P84098+P46778+P35268+P62829+P62750+P83731+P61254+P61353+P46776+P46779+P47914+P62888+P62899+P62910+P49207+P42766+P18077+Q9Y3U8+P83881+P61927+P61513+P63173+P62891+P62945+P05388+P05386); assay: Induction of ribosome-mediated readthrough activity in Q70X-transfected HEK293 cells assessed as suppression of Q70X mutation after 16 hrs by dual luciferase reporter gene assay; format: cell-based
Ribosome [6] = assay: Induction of ribosome-mediated readthrough activity in rabbit reticulocyte lysate assessed as suppression of R245X mutation after 90 mins by dual luciferase reporter gene assay; conditions: Oryctolagus cuniculus
Ribosome [7] = assay: Induction of ribosome-mediated readthrough activity in rabbit reticulocyte lysate assessed as suppression of R3381X mutation after 90 mins by dual luciferase reporter gene assay; conditions: Oryctolagus cuniculus
Escherichia coli = assay: Antibacterial activity against Escherichia coli R477/100 by double microdilution method; format: functional
[8] = target: T1, 80S Ribosome (Homo sapiens); assay: Induction of ribosome-mediated readthrough activity in R245X-transfected HEK293 cells assessed as suppression of R245X mutation after 16 hrs by dual luciferase reporter gene assay; format: cell-based
[9] = target: T1, 80S Ribosome (Homo sapiens); assay: Induction of ribosome-mediated readthrough activity in W1282X-transfected HEK293 cells assessed as suppression of W1282X mutation after 16 hrs by dual luciferase reporter gene assay; format: cell-based
[10] = target: T1, 80S Ribosome (Homo sapiens); assay: Induction of ribosome-mediated readthrough activity in R3X-transfected HEK293 cells assessed as suppression of R3X mutation after 16 hrs by dual luciferase reporter gene assay; format: cell-based
Ribosome [11] = assay: Induction of ribosome-mediated readthrough activity in rabbit reticulocyte lysate assessed as suppression of W1282X mutation after 90 mins by dual luciferase reporter gene assay; conditions: Oryctolagus cuniculus
Ribosome [12] = assay: Induction of ribosome-mediated readthrough activity in rabbit reticulocyte lysate assessed as suppression of Q70X mutation after 90 mins by dual luciferase reporter gene assay; conditions: Oryctolagus cuniculus
Ribosome [13] = assay: Induction of ribosome-mediated readthrough activity in rabbit reticulocyte lysate assessed as suppression of R3X mutation after 90 mins by dual luciferase reporter gene assay; conditions: Oryctolagus cuniculus
HFF = assay: as §1; format: cell-based; conditions: human, hff; read-out: LC50 (the source's name)

Row | Molecule | MIC (Bacillus spizizenii) | IC50 (Ribosome [1]) | CC50 [2] | Activity (Ribosome [3]) | CC50 [4] | Activity [5] | Activity (Ribosome [6]) | Activity (Ribosome [7]) | MIC (Escherichia coli) | Activity [8] | Activity [9] | Activity [10] | Activity (Ribosome [11]) | Activity (Ribosome [12]) | Activity (Ribosome [13]) | CC50 (HFF)
1 | NC[C@H]1O[C@@H](O[C@@H]2[C@@H](O)[C@H](N)C[C@H](N)[C@H]2O[C@H]2O[C@H](CO)[C@@H](O)[C@H](O)[C@H]2N)[C@H](O)[C@@H]1O | 100 µM (≈ 45.4 µg/mL) | 460 nM | 21.8 mM |  |  |  |  |  |  |  |  |  |  |  |  | 
2 | C[C@H](N)[C@H]1O[C@@H](O[C@@H]2[C@@H](O)[C@H](NC(=O)[C@@H](O)CCN)C[C@H](N)[C@H]2O[C@H]2O[C@H](CO)[C@@H](O)[C@H](O)[C@H]2N)[C@H](O)[C@@H]1O | 33 µM (≈ 18.8 µg/mL) | 2270 nM | 8.1 mM | Active | 10.1 mM | Active | Active | Active | 1070 µM (≈ 608 µg/mL) | Active | Active | Active | Active |  |  | 
3 | C[C@H](N)[C@H]1O[C@@H](O[C@@H]2[C@@H](O)[C@H](N)C[C@H](N)[C@H]2O[C@H]2O[C@H](CO)[C@@H](O)[C@H](O)[C@H]2N)[C@H](O)[C@@H]1O | 83 µM (≈ 38.9 µg/mL) | 1960 nM | 21.8 mM | Active | 23.5 mM |  | Active | Active | 2660 µM (≈ 1250 µg/mL) |  |  |  | Active | Active | Active | 
4 | NCC[C@H](O)C(=O)N[C@@H]1C[C@H](N)[C@@H](O[C@H]2O[C@H](CO)[C@@H](O)[C@H](O)[C@H]2N)[C@H](O[C@@H]2O[C@H](CN)[C@@H](O)[C@H]2O)[C@H]1O | 70 µM (≈ 38.9 µg/mL) | 160 nM | 7.8 mM | Active |  | Active | Active | Active |  | Active | Active | Active | Active |  |  | 
5 | NC[C@@H]1O[C@H](O[C@H]2[C@@H](O)[C@H](O[C@@H]3[C@@H](O)[C@H](N)C[C@H](N)[C@H]3O[C@H]3O[C@H](CO)[C@@H](O)[C@H](O)[C@H]3N)O[C@@H]2CO)[C@H](N)[C@@H](O)[C@@H]1O [PAROMOMYCIN SULFATE] | 1.2 µM | 51 nM | 3.1 mM |  | 4.1 mM |  |  |  |  |  |  |  |  |  |  | 
6 | GENTAMICIN SULFATE [listing 1 of 2 here] |  | 28 nM |  |  |  |  |  |  |  |  |  |  |  |  |  | 3.2 mM
7 | GENTAMICIN SULFATE [listing 2 of 2 here] | < 0.75 µM |  |  | Active |  | Active | Active | Active |  | Active | Active | Active | Active | Active | Active | 
8 | C[C@@H](N)[C@H]1O[C@@H](O[C@@H]2[C@@H](O)[C@H](NC(=O)[C@@H](O)CCN)C[C@H](N)[C@H]2O[C@H]2O[C@H](CO)[C@@H](O)[C@H](O)[C@H]2N)[C@H](O)[C@@H]1O | 33 µM (≈ 18.8 µg/mL) | 811 nM | 19.3 mM | Active | 13.9 mM | Active | Active | Active | 1060 µM (≈ 602 µg/mL) | Active | Active | Active | Active |  |  | 
9 | C[C@@H](N)[C@H]1O[C@@H](O[C@@H]2[C@@H](O)[C@H](N)C[C@H](N)[C@H]2O[C@H]2O[C@H](CO)[C@@H](O)[C@H](O)[C@H]2N)[C@H](O)[C@@H]1O | 78 µM (≈ 36.5 µg/mL) | 2130 nM | 20.1 mM | Active | 19.8 mM |  | Active | Active | 4990 µM (≈ 2340 µg/mL) |  |  |  | Active | Active | Active | 

Reference: ChEMBL document CHEMBL3217644, “Repairing faulty genes by aminoglycosides: Identification of new pharmacophore with enhanced suppression of disease-causing nonsense mutations” (Medchemcomm, 2011)
